We go through seven compounds from article PMC11653397, “Elucidating the Metabolism of Chiral PCB95 in Wildtype and Transgenic Mouse Models with Altered Cytochrome P450 Enzymes Using Intestinal Content Screening” (Chemical Research in Toxicology, 2024).

A short description of data set [1]: Atropselective GC-ECD analysis (enantiomeric fraction) of PCB95 in intestinal content. It is filed as in vivo, mice. As to conditions: for Enantiomeric fraction (EF) of PCB95 residues in the intestinal content: EF=AE1/(AE1+AE2), racemic standard EF 0.498±0.004, oral 1.0 mg/kg bw, 24 h. Here is the method:
Atropselective analyses of PCB95 were performed using an Agilent 7890A gas chromatograph with a ^63Ni-μECD detector and a Chirasil-Dex CB capillary column (25 m length, 250 μm inner diameter, 0.25 μm film thickness; Agilent, Santa Clara, CA, USA).[52] The following temperature program was used: 50 °C, hold for 1 min, 10 °C/min to 150 °C, hold for 65 min, 15 °C/min to 200 °C, and hold for 15 min. The injector and detector temperatures were 250 °C. Helium was used as carrier gas with a flow rate of 3.0 mL/min; argon-methane 5% was used as makeup gas with a 60 mL/min flow rate. The enantiomeric fraction (EF) values were calculated with the valley drop method[55] as EF = AE1/(AE1 + AE2), where AE1 and AE2 are the peak area of the first (E1) and the second eluting (E2) atropisomers, respectively.

The nature of data set [2]: GC-MS/MS levels of PCB95 and total hydroxylated metabolites in intestinal content of orally exposed mice. The following applies: for concentration at 24 h: mouse, intestinal content (distal colon and rectum), po, 1 mg/kg. As for the experimental part:
The intestinal content samples used in this study were generated as part of a published study of the atropselective disposition of PCB95 and its hydroxylated metabolites in mice.[48] […] This PCB dose is frequently used in PCB developmental neurotoxicity studies in rodent models.[21],[49]−[52] Blank tissue samples to assess the background contamination with PCB95 were generated in parallel by administering corn oil alone to mice (1–3 mice per group). The animals were euthanized 24 h after exposure, and intestinal content samples from the dissected distal colon and rectum were collected. Samples were stored at −80 °C in separate plastic bags and shipped on dry ice to the University of Iowa for analysis.
PCB95 and total OH-PCB95 metabolite levels were determined in intestinal content samples after deconjugation of sulfate and glucuronide conjugates using published methods with modifications.[53] Briefly, intestinal content samples (50 ± 22 mg, n = 38) were homogenized with a TissueRuptor (Qiagen, Hilden, Germany) in 3 mL of 0.2 M sodium acetate buffer (pH 5) in glass tubes and spiked with 4-PCB52 sulfate (100 ng in DMSO) as a surrogate standard. After adding 50 μL of sulfatase (type H-2 from Helix pomatia, Sigma-Aldrich, Burlington, MA, USA), the samples were kept at 37 °C for 16 h in a shaking water bath. Samples were quenched with 1 mL of 6 M HCl, and the surrogate standards (50 ng of PCB117 in isooctane and 50 ng of 4′-159 in methanol) were added to the incubation system. Subsequently, 5 mL of 2-propanol and 5 mL of a 1:1 hexane–MTBE mixture (v/v) were added. The samples were inverted for 5 min and centrifuged at 1690g for 5 min to facilitate the phase separation. Next, the organic phases were transferred to new glass tubes with 3 mL of 1% KCl solution, the aqueous phases were re-extracted with 3 mL of hexane, and the organic phases were combined with the above extract. After inverting and centrifugation, the organic phases were collected, and the aqueous KCl phases were re-extracted with 3 mL of hexane. The combined extracts were evaporated to near dryness using a Savant SpeedVac SPD210 vacuum concentrator (Thermo Scientific, Waltham, MA, USA) coupled with an RVT5105 refrigerated vapor trap (Thermo Scientific, Waltham, MA, USA), and each sample was reconstituted with 0.5 mL of hexane.
Five drops of methanol and 0.5 mL of diazomethane (about 5 mmol) in diethyl ether were added to the intestinal content extracts to derivatize the OH-PCBs.[43] The samples were stored at 4 °C for approximately 16 h for derivatization, and excess diazomethane was removed under a gentle stream of nitrogen in a fume hood. The extract was reconstituted to 0.5 mL of dichloromethane and was loaded onto a glass SPE cartridge filled with 2 g of acidified silica gel (silica gel/H2SO4, 2:1, w/w) with 0.2 g of deactivated silica gel on the bottom.[14] The PCB and metabolites were eluted from the SPE cartridge with 14 mL of dichloromethane; the eluent was concentrated with a Savant SpeedVac SPD210 vacuum concentrator (Thermo Scientific) to near dryness, and the solvent was exchanged to 4 mL of hexane. The extracts were treated with 4 mL of concentrated sulfuric acid for further lipid removal.[14] The organic phase was concentrated to near dryness with a Savant SpeedVac SPD210 vacuum concentrator (Thermo Scientific) and spiked with an internal standard (50 ng of PCB204 in isooctane) for gas chromatographic quantification of PCB95 and its hydroxylated metabolites (as methylated derivatives).
PCB95 and metabolite determinations were conducted on an Agilent 7890B gas chromatograph equipped with an Agilent 7000D Triple Quad and an Agilent 7693 autosampler in the multiple reaction monitoring setting (GC–MS/MS).[14] Gas chromatographic separations were performed with an SPB-Octyl capillary column (30 m length, […], 0.25 μm film thickness; Supelco, Bellefonte, PA, USA).

The subject of another data set is CYP2A6. The arrangement: method as in PMID 30576102, PMID 27989147. The following applies: pooled human liver microsomes, recombinant cytochrome P450 enzymes; cited from earlier work.
The conditions of data set [3]: mouse hepatic microsomes; cited from earlier work.
The conditions of data set [4]: rat hepatic microsomes; cited from earlier work.
On the set-up of data set [5]: method as in doi:10.1016/0045-6535(75)90032-6. The following applies: mice exposed orally to PCB95; cited from earlier work.
Details of data set [6]: method as in doi:10.1016/0045-6535(75)90032-6. The following applies: rats exposed orally to PCB95; cited from earlier work.
[7] abbreviates: female, CYP2A6-transgenic/Cyp2abfgs-null (KI).
[8] abbreviates: male, CYP2A6-transgenic/Cyp2abfgs-null (KI).
Where [9] appears, read: two-way ANOVA with Bonferroni correction.

The structures appear in SMILES notation. Several values for one entry are separate records, joined by “and”; a condition that tells them apart may be missing. Identical values can stand only once. Like-named read-outs stand apart in the source and are kept apart here.

On to `Clc1ccc(Cl)c(-c2c(Cl)ccc(Cl)c2Cl)c1` [aS-PCB95], for which, in data set [1] (all intestinal content samples, irrespective of sex and genotype), the “Atropisomeric enrichment in intestinal content” value is on record as “enriched”.

Consider `Oc1c(Cl)cc(Cl)c(-c2cc(Cl)ccc2Cl)c1Cl` [3-103, 2,4,6-trichloro-3-(2,5-dichlorophenyl)phenol], for which the concentration at 24 h in data set [2] (setting [7]) amounted to 17 ± 11 ng/g; in data set [2] (female, Cyp2abfgs-null (KO)), 14 ± 7 ng/g; in data set [2] (female), 14 ± 6 ng/g; in data set [2] (setting [8]), 6 ± 6 ng/g; in data set [2] (male, Cyp2abfgs-null (KO)) it was 6 ± 2 ng/g; in data set [2] (male) it was 7 ± 4 ng/g.

As for `Oc1cc(Cl)c(-c2c(Cl)ccc(Cl)c2Cl)cc1Cl` [4'-95, 2,2′,3,5′,6-pentachlorobiphenyl-4′-ol], the “Rank among PCB95 metabolites formed by human liver microsomes and recombinant P450 (CYP2A6)” value with CYP2A6 is on record as “major metabolite”. Moreover, the concentration at 24 h came out at 764 ± 831 ng/g in data set [2] (setting [7]); 414 ± 254 ng/g in data set [2] (female, Cyp2abfgs-null (KO)); 356 ± 192 ng/g in data set [2] (female); 298 ± 240 ng/g in data set [2] (setting [8]); 447 ± 159 ng/g in data set [2] (male, Cyp2abfgs-null (KO)); 452 ± 269 ng/g in data set [2] (male). Moreover, the “Rank among PCB95 metabolites formed by liver microsomes” value in data set [3] was “minor metabolites”.

For `Oc1cc(Cl)c(Cl)c(-c2cc(Cl)ccc2Cl)c1Cl` [5-95, 2,2′,3,5′,6-pentachlorobiphenyl-5-ol], in data set [4], the “Rank among PCB95 metabolites formed by hepatic microsomes” value is listed as “major PCB95 metabolite”. In addition, the “Rank among PCB95 metabolites in feces” value in data set [5] and in data set [6] was “major metabolite” in each case. Moreover, the concentration at 24 h worked out at 934 ± 790 ng/g in data set [2] (setting [7]); 359 ± 147 ng/g in data set [2] (female, Cyp2abfgs-null (KO)); 544 ± 295 ng/g in data set [2] (female); 300 ± 256 ng/g in data set [2] (setting [8]); 333 ± 123 ng/g in data set [2] (male, Cyp2abfgs-null (KO)); 424 ± 279 ng/g in data set [2] (male). Further, the “Rank among PCB95 metabolites formed by liver microsomes” value in data set [3] is listed as “major PCB95 metabolite”.

In the case of `Oc1c(O)c(Cl)c(-c2cc(Cl)ccc2Cl)c(Cl)c1Cl` [4,5-95, 3,4,6-trichloro-5-(2,5-dichlorophenyl)benzene-1,2-diol], the “Rank among OH-PCB95 metabolites in intestinal content” value in data set [2] (all intestinal content samples, all exposure groups) is “major metabolite”. In addition, the concentration at 24 h in data set [2] (setting [7]) was 1670 ± 1290 ng/g; in data set [2] (female, Cyp2abfgs-null (KO)), 527 ± 255 ng/g; in data set [2] (female), 1090 ± 492 ng/g; in data set [2] (setting [8]), 570 ± 376 ng/g; in data set [2] (male, Cyp2abfgs-null (KO)) it was 1030 ± 507 ng/g; in data set [2] (male), 1410 ± 574 ng/g.

Turning to `Clc1ccc(Cl)c(-c2c(Cl)ccc(Cl)c2Cl)c1` [PCB95, 2,2′,3,5′,6-pentachlorobiphenyl], the “Enantiomeric fraction (EF) of PCB95 residues in the intestinal content” value in data set [1] (FKI (n=4)) was 0.44±0.03; in data set [1] (FKO (n=6)), 0.44±0.05; in data set [1] (FWT (n=6), 1 mg/kg), 0.39±0.05 and 0.39; in data set [1] (MKI (n=5)) it was 0.40±0.03; in data set [1] (MKO (n=7), 1 mg/kg), 0.45±0.04 and 0.45; in data set [1] (MWT (n=5)) it was 0.41±0.05. Further, the concentration at 24 h in data set [2] (setting [7]) was determined as 110 ± 95 ng/g; in data set [2] (female, Cyp2abfgs-null (KO)), 26 ± 20 ng/g; in data set [2] (female), 26 ± 18 ng/g; in data set [2] (setting [8]) it was 33 ± 48 ng/g; in data set [2] (male, Cyp2abfgs-null (KO)), 139 ± 265 ng/g; in data set [2] (male), 39 ± 40 ng/g. Also, the “PCB95 levels in the intestinal content, FKI vs MKI mice” value in data set [2] (setting [9]) was “higher”. In data set [2] (setting [9]), the “PCB95 levels in the intestinal content, MKO vs MKI mice” value is “significantly higher”.

Consider `Oc1cc(Cl)c(-c2cc(Cl)ccc2Cl)c(Cl)c1Cl` [4-95, 2,2′,3,5′,6-pentachlorobiphenyl-4-ol], for which the concentration at 24 h came out at 434 ± 352 ng/g in data set [2] (setting [7]); 192 ± 70 ng/g in data set [2] (female, Cyp2abfgs-null (KO)); 248 ± 109 ng/g in data set [2] (female); 160 ± 134 ng/g in data set [2] (setting [8]); 177 ± 68 ng/g in data set [2] (male, Cyp2abfgs-null (KO)); 238 ± 134 ng/g in data set [2] (male). Besides, in data set [3], the “Rank among PCB95 metabolites formed by liver microsomes” value is listed as “minor metabolites”.
